Key:
SARS-CoV-2 [1] = type: cell-based
SARS-CoV-2 [2] = type: cell-based; details: commercially available nasal spray tested at 5-fold dilution
[3] = test system: monocytes, macrophages and lymphocytes; experiment: In vitro experiments in monocytes, macrophages and lymphocytes; type: cell-based
HIV = type: cell-based; details: in vitro
[4] = Human wound healing model (skin blister); type: in vivo
[5] = Blood cell effects in rats, including total body X-irradiation; type: in vivo
[6] = test system: radiation-induced, chemical-induced and metastatic malignant and benign tumors; experiment: Antitumor effects against induced and metastatic tumors; type: in vivo
[7] = Humoral and cellular immunity (Jerne plaque and footpad swelling tests); type: in vivo
[8] = test system: PBMCs isolated from normal donors; experiment: Gene expression in PBMCs by quantitative RT-PCR (Light Cycler System); type: cell-based, human

tetrachlorodecaoxide [TCDO]
cytopathic effect and SARS-CoV-2 infection of Vero E6 cells (SARS-CoV-2 [1]): significantly reduced | inhibition of viral propagation (SARS-CoV-2 [2]): highly potent | antigen presentation [3]: decrease antigen presentation | macrophage tumor necrosis factor (TNF) expression [3]: decrease macrophage tumor necrosis factor (TNF) expression | macrophage-fibroblast cooperation [3]: enhance macrophage-fibroblast cooperation | oxidative burst in monocytes [3]: stimulate an oxidative burst in monocytes | phagocytosis [3]: increase phagocytosis | anti-HIV properties (HIV): displayed anti-HIV properties | number of macrophages infiltrating the skin blister [4]: increased the number of macrophages infiltrating the skin blister | proportion of granulocytes, PBMCs and LGLs [5]: increased the proportion of granulocytes, peripheral blood monocytes (PBMCs) and large granular lymphocytes (LGLs) | erythropoiesis ([5]; after total body X-irradiation): stimulated erythropoiesis | direct antitumor effects [6]: displayed direct antitumor effects | humoral and cellular immune responses ([7]; Jerne plaque and footpad swelling tests): increased both the humoral and cellular immune responses | proportions of T-helper and T-suppressor/cytotoxic cells ([7]; spleen and thymus): altered proportions of T-helper and T-suppressor/cytotoxic cells | CD14 cell (macrophage) inflammatory gene expression [8]: short-term upregulation | inducible gene expression related to macrophage dependent T-cell activation (IL-2, IL-4, IL-17) [8]: notable inhibition
